Results: PubChem BioAssay AID276 (DTP/NCI, 2004)
“And” between values parts separate entries of the source, which are not always exact repeats. Equal values may be shown once. Toxic doses and inconclusive results are not listed. Rule for the calls: active = survival T/C of 150% or more; inactive = T/C below 125% in these data.

Tested on: B6C3F1 mice, Lewis lung carcinoma iv, survival T/C
Assay: NCI In Vivo Anticancer Drug Screen. Data for tumor model Lewis Lung Carcinoma (intravenous) in B6C3F1 mice
Details: endpoint: median survival time, schedule: Q01DX009 (ip), higher = longer survival
In short: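 Transplantable tumor in mice; compound treated vs vehicle controls; read-out survival; value = treated/control (T/C).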

[1] = dose: 25.0 mg/kg/injection, vehicle: saline with Tween-80
[2] = dose: 50.0 mg/kg/injection, vehicle: saline with Tween-80
[3] = dose: 100.0 mg/kg/injection, vehicle: saline with Tween-80
[4] = dose: 200.0 mg/kg/injection, vehicle: saline with Tween-80
[5] = dose: 12.5 mg/kg/injection, vehicle: saline with Tween-80
[6] = dose: 50.0 mg/kg/injection, vehicle: Klucel (hydroxypropylcellulose) (HPC)
[7] = dose: 25.0 mg/kg/injection, vehicle: saline
[8] = dose: 15.0 mg/kg/injection, vehicle: Klucel (hydroxypropylcellulose) (HPC)
[9] = dose: 30.0 mg/kg/injection, vehicle: Klucel (hydroxypropylcellulose) (HPC)
[10] = dose: 50.0 mg/kg/injection, vehicle: saline
[11] = dose: 100.0 mg/kg/injection, vehicle: saline

Measured: T/C

CC(=O)Oc1[nH]c(=O)c2cccc3c2c1CCC3
inactive: [1] 104 % of control | [2] 122 % of control | [3] 102 % of control | [4] 107 % of control | dose: 400.0 mg/kg/injection, vehicle: saline with Tween-80 105 % of control

COc1cc(Cl)ccc1C
inactive: [5] 102 % of control | [1] 98 % of control | [2] 100 % of control | [3] 97 % of control | [4] 97 % of control

CC(=O)OC1=NC(C)c2c1cc(OC(C)=O)[nH]c2=O (stereo not drawn)
inactive: dose: 12.5 mg/kg/injection, vehicle: Klucel (hydroxypropylcellulose) (HPC) 102 % of control | dose: 25.0 mg/kg/injection, vehicle: Klucel (hydroxypropylcellulose) (HPC) 98 % of control | [6] 95 % of control

Cc1ccc(S(=O)(=O)OCOS(=O)(=O)c2ccc(C)cc2)cc1
inactive: [6] 107 % of control | dose: 100.0 mg/kg/injection, vehicle: Klucel (hydroxypropylcellulose) (HPC) 103 % of control | dose: 200.0 mg/kg/injection, vehicle: Klucel (hydroxypropylcellulose) (HPC) 108 % of control | dose: 400.0 mg/kg/injection, vehicle: Klucel (hydroxypropylcellulose) (HPC) 117 % of control

CNC(=O)OCc1c(COC(=O)NC)c(-c2ccc(Cl)c(Cl)c2)n2c1Cc1ccccc1C2
inactive: dose: 12.5 mg/kg/injection, vehicle: distilled water + Tween-80 102 % of control | dose: 25.0 mg/kg/injection, vehicle: distilled water + Tween-80 114 % of control | dose: 50.0 mg/kg/injection, vehicle: distilled water + Tween-80 101 % of control and 105 % of control

O=C(O)C1CC(c2ccccc2)=NN1c1ccccc1 (stereo not drawn)
inactive: dose: 12.5 mg/kg/injection, vehicle: water 102 % of control | dose: 25.0 mg/kg/injection, vehicle: water 97 % of control | dose: 50.0 mg/kg/injection, vehicle: water 102 % of control | dose: 100.0 mg/kg/injection, vehicle: water 112 % of control | dose: 200.0 mg/kg/injection, vehicle: water 106 % of control

CN(C)c1ncnc2c1ncn2C1OC(CO)C(N)C1O (stereo not drawn)
inactive: [7] 112 % of control

C=C1C(=O)OC2/C=C(\C)CC(O)/C=C(/CO)CC(OC(=O)/C(C)=C/C)C12 (stereo not drawn)
inactive: dose: 15.0 mg/kg/injection, vehicle: saline with Tween-80 91 % of control | dose: 30.0 mg/kg/injection, vehicle: saline with Tween-80 101 % of control

S=c1nc[nH]c2nc[nH]c12
inactive: [8] 107 % of control | [9] 116 % of control

O=CC(O)C(O)C(O)C(O)CO (stereo not drawn)
inactive: dose: 75.0 mg/kg/injection, vehicle: saline 101 % of control | dose: 150.0 mg/kg/injection, vehicle: saline 97 % of control | dose: 300.0 mg/kg/injection, vehicle: saline 97 % of control | dose: 600.0 mg/kg/injection, vehicle: saline 97 % of control | dose: 1200.0 mg/kg/injection, vehicle: saline 96 % of control

C=C(C(=O)O)C(N)C(=O)O (stereo not drawn)
inactive: [7] 95 % of control | [10] 102 % of control | [11] 100 % of control | dose: 200.0 mg/kg/injection, vehicle: saline 117 % of control

O=C(CCCN1CCC(C(O)c2ccc(F)cc2)CC1)c1ccc(F)cc1 (stereo not drawn)
inactive: dose: 3.12 mg/kg/injection, vehicle: saline with Tween-80 102 % of control | dose: 6.25 mg/kg/injection, vehicle: saline with Tween-80 101 % of control | [5] 105 % of control

C=C1C(=O)C2=CC1CCC(=O)C1(C)CCC(OC(C)=O)C(C)(C)C1CC2O (stereo not drawn)
inactive: dose: 3.75 mg/kg/injection, vehicle: Klucel (hydroxypropylcellulose) (HPC) 93 % of control | dose: 7.5 mg/kg/injection, vehicle: Klucel (hydroxypropylcellulose) (HPC) 110 % of control | [8] 98 % of control | [9] 96 % of control | dose: 60.0 mg/kg/injection, vehicle: Klucel (hydroxypropylcellulose) (HPC) 100 % of control

C[C@H](N)C(=O)N[C@@H]1[C@H]2C(=C(O)C[C@@H](O)[C@@H]2O)C(=O)O[C@]1(C)C(Cl)Cl
inactive: dose: 0.19 mg/kg/injection, vehicle: Klucel (hydroxypropylcellulose) (HPC) 97 % of control | dose: 0.38 mg/kg/injection, vehicle: Klucel (hydroxypropylcellulose) (HPC) 101 % of control | dose: 0.75 mg/kg/injection, vehicle: Klucel (hydroxypropylcellulose) (HPC) 111 % of control | dose: 1.5 mg/kg/injection, vehicle: Klucel (hydroxypropylcellulose) (HPC) 100 % of control

COc1cc2c(c(OC)c1OC)-c1c(cc3c(c1OC)OCO3)CC(C)C(C)(O)C2OC(=O)c1ccccc1 (stereo not drawn)
inactive: dose: 6.25 mg/kg/injection, vehicle: saline + alcohol 93 % of control | dose: 12.5 mg/kg/injection, vehicle: saline + alcohol 96 % of control | dose: 25.0 mg/kg/injection, vehicle: saline + alcohol 107 % of control | dose: 50.0 mg/kg/injection, vehicle: saline + alcohol 102 % of control | dose: 100.0 mg/kg/injection, vehicle: saline + alcohol 106 % of control | dose: 200.0 mg/kg/injection, vehicle: saline + alcohol 103 % of control

O=C(O)C1CSCN1 (stereo not drawn)
inactive: dose: 3.12 mg/kg/injection, vehicle: saline 99 % of control | dose: 6.25 mg/kg/injection, vehicle: saline 108 % of control | dose: 12.5 mg/kg/injection, vehicle: saline 100 % of control | [7] 101 % of control | [10] 101 % of control | [11] 106 % of control

CCCCC(=O)OCC(=O)[C@]1(O)Cc2c(O)c3c(c(O)c2[C@@H](OC2CC(NC(=O)C(F)(F)F)C(O)C(C)O2)C1)C(=O)c1c(OC)cccc1C3=O (stereo partly drawn)
inactive: dose: 4.0 mg/kg/injection, vehicle: Klucel (hydroxypropylcellulose) (HPC) 100 % of control | dose: 4.0 mg/kg/injection, vehicle: saline with Tween-80 107 % of control | dose: 8.0 mg/kg/injection, vehicle: Klucel (hydroxypropylcellulose) (HPC) 100 % of control | dose: 8.0 mg/kg/injection, vehicle: saline with Tween-80 88 % of control | dose: 16.0 mg/kg/injection, vehicle: Klucel (hydroxypropylcellulose) (HPC) 107 % of control | dose: 16.0 mg/kg/injection, vehicle: saline with Tween-80 96 % of control | dose: 32.0 mg/kg/injection, vehicle: Klucel (hydroxypropylcellulose) (HPC) 110 % of control | dose: 32.0 mg/kg/injection, vehicle: saline with Tween-80 108 % of control | dose: 64.0 mg/kg/injection, vehicle: Klucel (hydroxypropylcellulose) (HPC) 118 % of control | dose: 128.0 mg/kg/injection, vehicle: Klucel (hydroxypropylcellulose) (HPC) 120 % of control
